Results as given in PMC11881437 (Molecular Medicine, 2025).

How the values were obtained:
[1] = system: HUVEC; experiment: Sprout (tube) formation assay with conditioned medium of CES; assay type: cell-based, human; conditions: for sprout formation: numbers and length of tubes: HUVEC, 24 h with CM of treated CES
Protocol: (§1) HCT116 CRC cells were grown in ultra-low attachment plate in 3dGRO™ Spheroid Medium (Sigma-Aldrich, USA) for 7 days. Spheroids enriched with CSCs were considered as CSC enriched spheres (CESs) or commonly referred as tumorospheres. After 7 days, tumorospheres were subjected to different treatments for 24 h, as per experimental protocol. Media of tumorospheres of all the treatment groups were collected, centrifuged to remove the cell debris and suspended spheres, supernatants were collected and vacuum concentrated. These supernatants were referred as conditioned medium (CM) and were stored at − 20 °C until use.
Matrigel was thawed overnight and the plate was coated with Matrigel (BD Bioscience, USA) and incubated for 1 h for polymerization. HUVECs (1 × 10^4) were seeded onto the Matrigel coated plate. After 8 h, media were changed with CM of interest. After 24 h of treatment tube formation was visualized microscopically and photographs were captured (DM 1000, Leica, Germany). The tube numbers were quantified by counting the branches between two discrete endothelial cells and length of the tubes were measured using Image J software by drawing a line along each tube and measuring the length in micrometer.

[2] = system: OCT4, NANOG and SOX2; experiment: Western blot of stemness factors in sorted CD44+/CD133+ cells; assay type: cell-based, human; conditions: 24 h, compared to 5FU treated group
Excerpt: CD44^+/CD133^+ cells were isolated using MACS LS column (Miltenyi Biotec, USA) after leveled with CD44 and CD133 antibody conjugated with microbeads (Miltenyi Biotec, USA) by following manufacture’s protocol and subjected to further analysis. Cells expressing both CD44 and CD133 were isolated using magnetic cell sorter (MACS) (Guerriero et al. [2017]).
Protein samples were extracted from treated and untreated cells and subjected to western blot analysis by standard protocol (Bhowmik et al. [2013]). Cells were incubated with Brefeldin A (10 µg/ml) for 4 h before harvesting to determine VEGFA expression. Briefly, cells were lysed with RIPA buffer [50 mmol/L Tris–HCl (pH 7.8), 150 mmol/L NaCl, 1% Triton X-100, 0.1% SDS, 0.5% sodium deoxycholate, and 1 mmol/L EDTA] containing complete protease inhibitor cocktail. Equal amount of protein was electrophoresed on SDS-PAGE and electro transferred onto polyvinylidene difluoride (PVDF) membranes using Bio-Rad mini gel apparatus. […] Signals were detected with the ECL system (Promega, USA) and images were captured in iBright™ CL1500 Imaging System.

[3] = system: CES from HIF1α transfected HCT116 cells; experiment: Diameter and number of CES from HIF1α transfected HCT116 cells; assay type: cell-based, human
Protocol: as §1
HCT116 cells were transiently transfected with HA-HIF1α-pcDNA3 plasmid (Addgene, USA, Plasmid #18949) by using lipofectamineTM 2000 (Thermo Fisher Scientific, USA) according to the manufacturer’s instructions. After 24 h of transfection, those cells were subjected to various experiments.

[4] = system: CD44+/CD133+ CSC population in CES derived from HCT116 cells; experiment: Flow cytometry of CD44+/CD133+ cells in tumorospheres; assay type: cell-based, human; conditions: 24 h, 26 µM Orientin, 13 µM 5FU, 14 µM Orientin + 7 µM 5FU, untreated 18.4%
Protocol: as §1
Percentages of CD44^+/CD133^+ cell population were determined within tumorospheres and HIF1α positive cells were determined within the CD44^+/CD133^+ cell population using a flow cytometer (BD LSRFortessa™ X-20) and analyzed by BD FACSDiva™ software.

[5] = system: CSC enriched spheres (CES) derived from HCT116 cells; experiment: Cellular ROS, NO and LPO level in CES; assay type: cell-based, human; conditions: 24 h, 26 µM Orientin, 13 µM 5FU, 14 µM Orientin + 7 µM 5FU
Protocol: Reactive oxygen species (ROS) level in the cells of treated and untreated CESs was measured by 2′,7′-dichlorofluorescein diacetate (DCFH-DA) standard protocol (Bhattacharjee et al. [2014]). The production of nitric oxide (NO) were estimated by the level of stable NO metabolites, viz., nitrate (NO3^–) and nitrite (NO2^–) ions by reaction with Griess reagent (Bryan and Grisham [2007]). […]

[6] = system: CT26 cell induced solid tumor; experiment: CT26 syngeneic colorectal tumor model; assay type: in vivo, BALB/c mice; conditions: for tumor volume: 10 days, Orientin 5 mg/kg b.w/day i.v., 5FU 5 mg/kg b.w i.v. alternate day; for tumor volume / survival (Kaplan Meier): vs control; for tumor tissue histopathology: H&E; for number of blood vessels in tumor tissue: H&E sections; for CD44+/CD133+ cells in tumor tissue / HIF1α and VEGFA expression in tumor: immunofluorescence; for survival (Kaplan Meier): tumor bearing mice
Protocol: To set up therapeutic in vivo model, CT26 cells (2 × 10^6 cells/animal), syngeneic to BALB/c mice were injected subcutaneously to the right hind limb of the each animal. Palpable tumor was formed after 10 days. […] Six mice from each group were sacrificed on day 11 and the others were left for performing survivability assay using Kaplan–Meier method (Hajra et al. [2018a]).
Various organs and solid tumors collected after sacrificing the mice were embedded into paraffin after 10% neutral buffered formalin fixation. 4 μm sections were prepared and used for histopathological study. Standard Hematoxylin and Eosin (H&E) staining protocol was used and sections were visualized under light microscope (DM 1000, Leica, Germany) (Hajra et al. [2018a]).
Immunofluorescence assay was carried out as described previously (Shimizu et al. [2023]). Tissue sections were blocked with 3% BSA and incubated with primary antibodies like HIF1α, VEGFA, CD44 (Thermo Fisher Scientific, USA) and CD133 (Abcam, USA) at room temperature for 2 h. Alexa fluor 488 and Alexa fluor 594 tagged secondary (Thermo Fisher Scientific, USA) antibodies were added to all the tissue sections for 1 h followed by DAPI staining and images were visualized under fluorescence microscope (Olympus BX53, Japan).

[7] = system: VEGFA; experiment: ELISA of VEGFA secreted into conditioned medium of CES; assay type: cell-based, human
Protocol: as §1, with “3dGROTM” for “3dGRO™”, “-” for “−”, “use. Concentration of the secreted VEGFA was measured using the ELISA kit according to the manufacturer's instruction ([…] BioSystems, India) in CM of CESs as well as in the media of transfected and non-transfected HCT116.” for “use.”

| Compound | number of sprouting and length of tubes, comparison with VEGFA neutralizing antibody ([1]; HUVEC with CM of treated CES, 5 µg/ml VEGFA neutralizing antibody, 26 µM Orientin) | sprout formation: numbers and length of tubes [1] | protein expression of OCT4, NANOG and SOX2 [2] | diameter of spheres [3] | number of spheres [3] | CD44+/CD133+ cell population [4] [%] | ROS, NO and LPO production in tumorospheres [5] | tumor volume [6] | tumor tissue histopathology [6] | number of blood vessels in tumor tissue [6] | CD44+/CD133+ cells in tumor tissue [6] | HIF1α and VEGFA expression in tumor [6] | survival (Kaplan Meier) [6] | VEGFA secreted into CM of CES [7] |
| --- | --- | --- | --- | --- | --- | --- | --- | --- | --- | --- | --- | --- | --- | --- |
| O=c1cc(-c2ccc(O)c(O)c2)oc2c([C@@H]3O[C@H](CO)[C@@H](O)[C@H](O)[C@H]3O)c(O)cc(O)c12 [Orientin] | same level of inhibition | remarkably reduced | downregulated | decrease | decrease | 13.5 | decrease | decrease in the tumor volume | lost their compactness | reduced | reduction | decreased | increased life span |  |
| O=c1[nH]cc(F)c(=O)[nH]1 [5FU, 5-Fluorouracil, reference compound] |  | instigated sprout formations by increasing the numbers and length of tubes |  |  |  | 22.3 | increased | decrease in the tumor volume | cell numbers were found to be reduced | increasing blood vessels number | increased | increase | increased life span | stimulated |
